Test results from patent US10363239B2, “Method for inhibiting growth of cancer cells” (Pain Therapeutics, Inc., priority 2013, dated 2019).
Where two headings read alike, the source gives them in different places.

Assays:
[1] = target: FLNA pentapeptide of SEQ ID NO: 1 (Bn-VAKGL) (Homo sapiens, UniProt P21333); experiment: FITC-NLX-based FLNA screening assay (inhibition of FITC-naloxone binding to Bn-VAKGL on streptavidin plates); settings: 10 nM FITC-NLX
mu opiate receptor (MOR) = experiment: MOR agonist activity using [35S]GTPγS binding assay in striatal membranes; format: biochemical; settings: for MOR agonist activity ([35S]GTPγS binding), FLNA-Binding Compound as Agonist 1 μM + BFNA: 1 μM compound + 1 μM β-funaltrexamine
Procedure, shortened: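 Striatal membranes (200 μg) were preincubated 5 min at 30 °C in HEPES pH 7.5 with 100 mM NaCl, 1 mM MgCl2 and 0.5 nM [35S]GTPγS, then 5 min more with 0.1–10 μM compound. Gαo was immunoprecipitated and bound radioactivity counted by scintillation.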

[2] = FLNA-binding compound 0.01 μM, read-out: Percent Binding Inhibition
[3] = FLNA-binding compound 0.1 μM, read-out: Percent Binding Inhibition
[4] = FLNA-binding compound 1 μM, read-out: Percent Binding Inhibition
[5] = 0.1 μM compound relative to DAMGO
[6] = 1 μM compound + BFNA relative to DAMGO + BFNA
[7] = 1 μM compound relative to DAMGO
[8] = Series C-2, 0.1 μM compound, relative to DAMGO
[9] = Series C-2, 0.1 μM compound, [35S]GTPγS binding to Gαo, striatal membranes
[10] = Series C-2, 1 μM compound + 1 μM β-FNA
[11] = Series C-2, 1 μM compound + β-FNA, relative to DAMGO + BFNA
[12] = Series C-2, 1 μM compound, relative to DAMGO
[13] = Series C-2, 1 μM compound, [35S]GTPγS binding to Gαo, striatal membranes
[14] = read-out: Percent Binding Inhibition, FLNA-binding compound 0.01 μM
[15] = read-out: Percent Binding Inhibition, FLNA-binding compound 0.1 μM
[16] = read-out: Percent Binding Inhibition, FLNA-binding compound 1 μM
[17] = Series C-1, 0.1 μM compound, relative to DAMGO
[18] = Series C-1, 0.1 μM compound, [35S]GTPγS binding to Gαo, striatal membranes
[19] = Series C-1, 1 μM compound + 1 μM β-FNA
[20] = Series C-1, 1 μM compound + β-FNA, relative to DAMGO + BFNA
[21] = Series C-1, 1 μM compound, relative to DAMGO
[22] = Series C-1, 1 μM compound, [35S]GTPγS binding to Gαo, striatal membranes

Compound: CC1CCC(C(C)C)C(OCC(O)CN2CCN(CCN3CCCCC3)CC2)C1 (stereo not drawn) [Compound A0031]
- inhibition at 0.01 µM [1, 2]: 40.8%
- inhibition at 0.1 µM [1, 3]: 47.6%
- inhibition at 1 µM [1, 4]: 52.9%
- MOR agonist activity ([35S]GTPγS binding), FLNA-Binding Compound as Agonist 0.1 μM (mu opiate receptor (MOR); 0.1 μM compound): 178.2%
- % DAMGO (0.1 μM) (mu opiate receptor (MOR); [5]): 100.9%
- MOR agonist activity ([35S]GTPγS binding), FLNA-Binding Compound as Agonist 1 μM (mu opiate receptor (MOR); 1 μM compound): 297.0%
- MOR agonist activity ([35S]GTPγS binding), FLNA-Binding Compound as Agonist 1 μM + BFNA (mu opiate receptor (MOR)): 150.9%
- % DAMGO + BFNA (mu opiate receptor (MOR); [6]): 573.8%
- % DAMGO (1 μM) (mu opiate receptor (MOR); [7]): 116.8%

Compound: CCN1CCC2(CC1)OCCN2S(=O)(=O)c1ccc(OC)cc1 [Compound C0089M]
- inhibition at 0.01 µM [1, 2]: 40.7%
- inhibition at 0.1 µM [1, 3]: 46.1%
- inhibition at 1 µM [1, 4]: 51.2%
- % DAMGO (0.1 μM) (mu opiate receptor (MOR); [8]): 136.3%
- MOR agonist activity, percent [35S]GTPγS binding at the stated compound concentration (mu opiate receptor (MOR); [9]): 234.5%
- MOR agonist activity, percent [35S]GTPγS binding at the stated compound concentration (mu opiate receptor (MOR); [10]): 81.9%
- % DAMGO + BFNA (mu opiate receptor (MOR); [11]): 237.4%
- % DAMGO (1 μM) (mu opiate receptor (MOR); [12]): 134.4%
- MOR agonist activity, percent [35S]GTPγS binding at the stated compound concentration (mu opiate receptor (MOR); [13]): 295.3%

Compound: CC(=O)c1ccc(S(=O)(=O)N2CCC3(CC2)OCCN3S(=O)(=O)c2ccc(C(C)=O)cc2)cc1 [Compound C0011]
- inhibition at 0.01 µM [1, 14]: 37.6%
- inhibition at 0.1 µM [1, 15]: 41.4%
- inhibition at 1 µM [1, 16]: 46%
- % DAMGO (0.1 μM) (mu opiate receptor (MOR); [17]): 126.8%
- Concentration of FLNA-Binding Compound as Agonist 0.1 μM (mu opiate receptor (MOR); [18]): 217.0%
- Concentration of FLNA-Binding Compound as Agonist 1 μM + BFNA (mu opiate receptor (MOR); [19]): 19.0%
- % DAMGO + BFNA (mu opiate receptor (MOR); [20]): 36.5%
- % DAMGO (1 μM) (mu opiate receptor (MOR); [21]): 114.3%
- Concentration of FLNA-Binding Compound as Agonist 1 μM (mu opiate receptor (MOR); [22]): 305.0%
- % DAMGO (0.1 μM) (mu opiate receptor (MOR); [8]): 126.8%
- MOR agonist activity, percent [35S]GTPγS binding at the stated compound concentration (mu opiate receptor (MOR); [9]): 217.0%
- MOR agonist activity, percent [35S]GTPγS binding at the stated compound concentration (mu opiate receptor (MOR); [10]): 19.0%
- % DAMGO + BFNA (mu opiate receptor (MOR); [11]): 36.5%
- % DAMGO (1 μM) (mu opiate receptor (MOR); [12]): 114.3%
- MOR agonist activity, percent [35S]GTPγS binding at the stated compound concentration (mu opiate receptor (MOR); [13]): 305.0%

Compound: O=S(=O)(c1ccc(Br)c(C(F)(F)F)c1)N1CCC2(CC1)OCCN2S(=O)(=O)c1ccc(Br)c(C(F)(F)F)c1 [Compound C0077]
- inhibition at 0.01 µM [1, 14]: 45.7%
- inhibition at 0.1 µM [1, 15]: 47.7%
- inhibition at 1 µM [1, 16]: 51%
- % DAMGO (0.1 μM) (mu opiate receptor (MOR); [17]): 109.5%
- Concentration of FLNA-Binding Compound as Agonist 0.1 μM (mu opiate receptor (MOR); [18]): 192.7%
- Concentration of FLNA-Binding Compound as Agonist 1 μM + BFNA (mu opiate receptor (MOR); [19]): 136.7%
- % DAMGO + BFNA (mu opiate receptor (MOR); [20]): 621.4%
- % DAMGO (1 μM) (mu opiate receptor (MOR); [21]): 104.9%
- Concentration of FLNA-Binding Compound as Agonist 1 μM (mu opiate receptor (MOR); [22]): 265.4%

Compound: CC1CCC(C(C)C)C(OCC(O)CN2CCN(CCCN3CCOCC3)CC2)C1 (stereo not drawn) [Compound A0026]
- inhibition at 0.01 µM [1, 2]: 36.4%
- inhibition at 0.1 µM [1, 3]: 42.4%
- inhibition at 1 µM [1, 4]: 49.2%
- MOR agonist activity ([35S]GTPγS binding), FLNA-Binding Compound as Agonist 0.1 μM (mu opiate receptor (MOR); 0.1 μM compound): 140.7%
- % DAMGO (0.1 μM) (mu opiate receptor (MOR); [5]): 79.7%
- MOR agonist activity ([35S]GTPγS binding), FLNA-Binding Compound as Agonist 1 μM (mu opiate receptor (MOR); 1 μM compound): 179.8%
- MOR agonist activity ([35S]GTPγS binding), FLNA-Binding Compound as Agonist 1 μM + BFNA (mu opiate receptor (MOR)): 120.8%
- % DAMGO + BFNA (mu opiate receptor (MOR); [6]): 459.3%
- % DAMGO (1 μM) (mu opiate receptor (MOR); [7]): 70.7%

Compound: CC(=O)c1ccc(S(=O)(=O)N2CCC3(CC2)NC(=O)CO3)cc1 [Compound C0087M]
- inhibition at 0.01 µM [1, 2]: 51.6%
- inhibition at 0.1 µM [1, 3]: 57.9%
- inhibition at 1 µM [1, 4]: 61.5%
- % DAMGO (0.1 μM) (mu opiate receptor (MOR); [8]): 138.9%
- MOR agonist activity, percent [35S]GTPγS binding at the stated compound concentration (mu opiate receptor (MOR); [9]): 262.8%
- MOR agonist activity, percent [35S]GTPγS binding at the stated compound concentration (mu opiate receptor (MOR); [10]): 142.5%
- % DAMGO + BFNA (mu opiate receptor (MOR); [11]): 293.8%
- % DAMGO (1 μM) (mu opiate receptor (MOR); [12]): 132.8%
- MOR agonist activity, percent [35S]GTPγS binding at the stated compound concentration (mu opiate receptor (MOR); [13]): 329.6%

Compound: COc1c2c(cc3c1C(CC(O)CCc1ccccc1)N(C)CC3)OCO2 (stereo not drawn) [Compound B0051]
- inhibition at 0.01 µM [1, 2]: 29.9%
- inhibition at 0.1 µM [1, 3]: 35.7%
- inhibition at 1 µM [1, 4]: 43.7%
- % DAMGO (0.1 μM) (mu opiate receptor (MOR); Series B, 0.1 μM compound, relative to DAMGO): 68.4%
- MOR agonist activity, percent [35S]GTPγS binding at the stated compound concentration (mu opiate receptor (MOR); Series B, 0.1 μM compound, [35S]GTPγS binding to Gαo, striatal membranes): 115.6%
- MOR agonist activity, percent [35S]GTPγS binding at the stated compound concentration (mu opiate receptor (MOR); Series B, 1 μM compound + 1 μM β-FNA): 43.8%
- % DAMGO + BFNA (mu opiate receptor (MOR); Series B, 1 μM compound + β-FNA, relative to DAMGO + BFNA): 263.9%
- % DAMGO (1 μM) (mu opiate receptor (MOR); Series B, 1 μM compound, relative to DAMGO): 76.7%
- MOR agonist activity, percent [35S]GTPγS binding at the stated compound concentration (mu opiate receptor (MOR); Series B, 1 μM compound, [35S]GTPγS binding to Gαo, striatal membranes): 167.9%
